Experimental data from patent US20040063699A1, “Gpr14 antagonist” (priority 2000, published 2004).
Structures can show the parent of a compound that is named as a salt.

molecular target: T1, human GPR14 (Homo sapiens, UniProt Q9UKP6); assay: Inhibition of binding of [125I]-labeled human urotensin II to human GPR14-expressing CHO cell membrane fraction; conditions: 25° C., 3 hours, read-out: Inhibitory concentration (concentration at which the compound showed 50% inhibition of human GPR14 binding activity)
T1 construct: expressed in transfected cells
T1 sequence (Q9UKP6 1-389): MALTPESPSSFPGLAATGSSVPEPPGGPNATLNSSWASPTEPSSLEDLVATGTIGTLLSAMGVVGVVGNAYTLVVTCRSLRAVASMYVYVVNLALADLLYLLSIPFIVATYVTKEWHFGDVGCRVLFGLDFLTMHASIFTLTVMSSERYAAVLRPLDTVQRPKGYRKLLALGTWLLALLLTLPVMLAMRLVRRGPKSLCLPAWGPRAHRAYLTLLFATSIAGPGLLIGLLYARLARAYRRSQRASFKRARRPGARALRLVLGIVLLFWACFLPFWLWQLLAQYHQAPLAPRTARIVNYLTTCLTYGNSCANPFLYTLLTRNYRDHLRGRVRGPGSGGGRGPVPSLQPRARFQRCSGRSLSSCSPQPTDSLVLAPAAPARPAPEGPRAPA
Protocol: To 1×10^8 CHO/GPR14 cells were added 10 ml of homogenate buffer (10 mM NaHCO3, 5 mM EDTA, 0.5 mM PMSF, 1 μg/ml pepstatin, 4 μg/ml E64, 20 μg/ml leupeptin), and disrupted using Polytron (12,000 rpm, 1 minute). Cell debris solution was centrifuged at 1,000 g for 15 minutes to obtain a supernatant. The supernatant was then […] (in Beckman type 30 rotor, 30,000 rpm, 1 hour), and the resultant precipitant was collected as human GPR14-expressing CHO cell fraction.
Isotope-labeled human urotensin II to be used in experiments for testing inhibition of binding was prepared as described below. 5 μg of human urotensin II (available from Peptide Institute, Inc.) was dissolved in 25 μl of 0.4M sodium acetate (pH 5.6). To the solution was added 200 ng of lactoperoxidase (Wako Pure Chemical Industries, Ltd.) followed by 1 mCi [^125I]-sodium iodide (Amersham Pharmacia Biotech) and 200 ng of hydrogen peroxide (10 μl). The solution was left to stand at room temperature for 10 minutes, another 200 ng of hydrogen peroxide (10 μl) was added thereto and then the solution was left to stand for 10 minutes. The mixture was then purified by HPLC using TSKgel ODS-80Ts column (4.6 mm×25 cm, Toso Co., Ltd.) to obtain [^125I]-labeled human urotensin II.
Experiment for Testing the Ability of Test compound to Inhibit Binding of Urotensin II to GPR14 Using Human GPR14-Expressing Cell Fraction and Isotope-Labeled Urotensin II
Human GPR14-expressing CHO cell fraction was diluted in a membrane diluting buffer (20 mM phosphate buffer (pH7.3), 150 mM NaCl, 5 mM MgCl2, […], 0.05% CHAPS, 0.5 mM PMSF, 0.1 μg/ml Pepstatin, 20 μg/ml Leupeptin, 4 μg/ml E-64) to prepare a solution of cell membrane fraction (protein concentration: 3 μg/ml) for assay. […] Next, the filter was washed three times with membrane diluting buffer (0.2 ml), added with 20 μl of Microscinti 20 (Packard), and determined for radioactivity in Topcount (Packard). Specific-binding is calculated by subtracting non-specific binding from the total binding. […]

IC50 [nM] | Structure (SMILES)
1.7 | O=C(NCCN1CCN(C(c2ccc(F)cc2)c2ccc(F)cc2)CC1)c1ccc2c(c1)CCNCC2 [Example 84, N-(2-{4-[bis(4-fluorophenyl)methyl]piperazin-1-yl}ethyl)-2,3,4,5-tetrahydro-1H-3-benzazepine-7-carboxamide trihydrochloride]
3.2 | O=C(CCCN1CCN(C(c2ccc(F)cc2)c2ccc(F)cc2)CC1)c1ccc2c(c1)CCNCC2 [Example 6, 4-{4-[bis(4-fluorophenyl)methyl]-1-piperazinyl}-1-(2,3,4,5-tetrahydro-1H-3-benzazepin-7-yl)-1-butanone trihydrochloride]
8.6 | O=S(=O)(NCCN1CCN(Cc2ccccc2)CC1)c1ccc2c(c1)CCNCC2 [Example 75, N-[2-(4-benzyl-1-piperazinyl)ethyl]-2,3,4,5-tetrahydro-1H-3-benzazepine-7-sulfonamide trihydrochloride]
